Test results as given in US20240139197A1, “INHIBITION OF KDM5A FOR PROMOTING ANTIGEN PRESENTATION, INCREASING CD8+ T CELL INFILTRATION AND BOOSTING ANTI-TUMOR IMMUNE RESPONSE” (The Wistar Institute of Anatomy and Biology, priority 2022, published 2024).

Experiments:
H3K4me3 in HGS2 cells = assay: immunoblot of H3K4me3, HGS2; format: cell-based, mouse; details: HGS2, 10 μM, 72 hours
Protocol: FIG. 6A-FIG. 6K show KDM5A inhibition promotes anti-tumor immune response in vivo. (FIG. 6A) Expression of H3K4me3, Kdm5a and a loading control b-actin in an independent second doxycycline-inducible shKdm5a ID8 clone treated with or without 2 μg/mL of doxycycline. (FIG. 6B) Same as FIG. 6A, but doxycycline-inducible shKdm5a ID8 cells were plated into 24 well plates and treated with 2 μg/mL of doxycycline the same day. Cells were incubated for 8 days. Relative cell viability was determined by colony formation assay. (FIG. 6C) Expression of H3K4me3, Kdm5a and a loading control b-actin in HGS2 cells treated 10 μM of CPI-455 or vehicle controls for 72 hours. […] Relative cell viability was determined by colony formation assay. (FIG. 6E-FIG. 6F) Bioluminescence signal was measured by IVIS system in indicated animal groups in the immunocompetent C57BL/6 mouse model once a week (FIG. 6E) and the survival of the indicated groups was determined by Kaplan-Meier survival curves (FIG. 6F) (n=5 mice per group). […] Ascites volumes produced from the indicated groups were quantified (FIG. 6H). n=5 mice per group. […] (FIG. 6J-FIG. 6K) Bioluminescence signal was measured by IVIS system in indicated animal groups in the immunocompromised NSG mouse model once a week (FIG. 6J), or examined for Kaplan-Meier survival curves for the indicated groups (FIG. 6K). […]

H2-K1 on HGS2 cells = assay: cell surface MHC class I H2-K1 by FACS, HGS2; format: cell-based, mouse; details: HGS2, in response to IFNγ
Text: FIG. 8A-FIG. 8K show KDM5A regulates antigen processing and presentation pathway. (FIG. 8A) Validation of Kdm5a knockout and upregulation of H3K4me3 in Kdm5a knockout ID8 cells by immunoblot. β-actin expression was used as a loading control. (FIG. 8B) GSEA KEGG enrichment analysis of differentially expressed genes (DEGs) between control and Kdm5a knockout ID8 cells. NES, normalized enrichment score. (FIG. 8C) Enrichment plot of GSEA for antigen processing and presentation pathway. […] (FIG. 8E) Expression of Kdm5a and a loading control β-actin in inducible Kdm5a knockdown HGS2 cells with or without doxycycline treatment determined by immunoblot. (FIG. 8F) Cell surface expression of H2-K1 in HGS2 cells with or without inducible Kdm5a knockdown stimulated with IFNy was determined by FACS analysis. (FIG. 8G) Quantification of FIG. 8F. (FIG. 8H) Cell surface expression of H2-K1 in HGS2 cells treated with or without CPI455 and stimulated with IFNy was determined by FACS analysis. (FIG. 8I) Quantification of FIG. 8H; (FIG. 8J) Correlation between CD8A and HLA-A or HLA-B expression based on RNA-seq analysis in the TCGA HGSOC dataset. […] Data represent mean +SEM; P values were calculated by using a two-tailed Student t test except in FIG. 8J and FIG. 8K by using Pearson r analysis and FIG. 8B and FIG. 8C by using GSEA. […]

**Q.** Which results are given for CPI-455?
**A.** H3K4me3 levels (H3K4me3 in HGS2 cells): increase H3K4me3 levels; MHC class I presence on cell surface (H2-K1 on HGS2 cells): increased MHC class I presence on cell surface
